Experimental data: ChEMBL document CHEMBL4177550, “Bi- and Tetracyclic Spirotetronates from the Coal Mine Fire Isolate Streptomyces sp. LC-6-2” (J Nat Prod, 2017)
Active and inactive are the calls of the source.

Tests used:
A549 = test: Cytotoxicity against human A549 cells assessed as decrease in cell viability up to 10 uM after 48 hrs by resazurin assay; format: functional, cell-based
Staphylococcus aureus = test: Antibacterial activity against Staphylococcus aureus ATCC 6538 up to 60 uM after 16 to 48 hrs; format: functional, organism-based
Salmonella enterica = test: Antibacterial activity against Salmonella enterica ATCC 10708 up to 60 uM after 16 to 48 hrs; format: functional, organism-based
Saccharomyces cerevisiae = test: Antifungal activity against Saccharomyces cerevisiae ATCC 204508 up to 60 uM after 16 to 48 hrs; format: functional, organism-based
Micrococcus luteus = test: Antibacterial activity against Micrococcus luteus NRRL B-287 up to 60 uM after 16 to 48 hrs; format: functional, organism-based
Escherichia coli = test: Antibacterial activity against Escherichia coli NRRL B-3708 up to 60 uM after 16 to 48 hrs; format: functional, organism-based

Measured: Activity

C[C@@H]1C[C@H](C)/C(O)=C2/C(=O)O[C@]34C[C@@H](CO)[C@]5(C)O[C@]23[C@@H](C[C@H]4[C@@H]5O)C1=O
inactive: all assays above

C[C@@H]1C[C@@]23OC(=O)C4=C2O[C@]1(C)[C@@H](O)[C@@H]3[C@H]1O[C@H]1C(=O)[C@@](C)(O)C[C@H](C)C4=O
inactive: all assays above

C[C@@H]1C[C@H](C)/C(O)=C2/C(=O)O[C@]34C[C@@H](C)[C@]5(C)O[C@]23[C@@H](C[C@H]4[C@@H]5O)C1=O
inactive: all assays above

C[C@@H]1C[C@]23OC(=O)/C4=C(\O)[C@@H](C)C[C@](C)(O)C(=O)[C@@H]5[C@@H](O)[C@H]2[C@H](O)[C@@]1(C)O[C@@]453
inactive: all assays above

CC(=O)C[C@H](C)C(=O)C1=C(O)[C@@]2(C[C@@H](C)C(C)=C[C@H]2/C=C/C(=O)O)OC1=O
inactive: all assays above

C[C@H]1C[C@](C)(O)C(=O)C[C@@H]2/C(=C\1O)C(=O)O[C@]13C[C@H](C)[C@](C)(OC1=O)[C@@H](O)[C@H]23
inactive: all assays above

C[C@@H]1C[C@H](C)/C(O)=C2/C(=O)O[C@]34C[C@@](C)(O)[C@]5(C)O[C@]23[C@@H](C[C@@]42O[C@H]25)C1=O
inactive: all assays above

CO[C@H]1[C@H]2[C@H](O)[C@@]3(C)O[C@@]45/C(=C(/O)[C@@H](C)C[C@](C)(O)C(=O)[C@H]14)C(=O)O[C@@]25C[C@H]3C
inactive: all assays above

C[C@H]1C[C@](C)(O)C(=O)[C@@H]2[C@@H](O)[C@H]3[C@H](O)[C@@]4(C)O[C@@]25/C(=C\1O)C(=O)O[C@@]35C[C@H]4CO
inactive: all assays above

C[C@@H]1C[C@H](C)/C(O)=C2/C(=O)O[C@]34C[C@@](C)(O)[C@]5(C)O[C@]23[C@@H](C[C@H]4[C@@H]5O)C1=O
inactive: all assays above

C[C@H]1C[C@](C)(O)C(=O)[C@@H]2[C@@H](O)[C@H]3[C@H](O)[C@@]4(C)O[C@@]25/C(=C\1O)C(=O)O[C@@]35C[C@@]4(C)O
inactive: all assays above

C[C@@H]1C[C@H](C)C(=O)C2=C3O[C@@]4(C)[C@H](CO)C[C@]3(OC2=O)[C@@H](CCC1=O)[C@@H]4O
inactive: all assays above
